Source: EPA's ToxValDB 9.5 (doi:10.2903/j.efsa.2005.285)

Columns and labels:
Canidae = details: chronic, oral, Beagle, organ weight
Bovidae = details: subchronic, oral, diet; for LEL: duration: 12 weeks, no effects
Gallus gallus = details: reproduction developmental, oral, diet, F
Ovis sp. = details: oral, diet
Sus scrofa = details: subchronic; duration: 60 days; oral; diet; Not specified; no effects
Oncorhynchus mykiss = details: chronic/long-term; duration: 240 days; oral; feed; clinical chemistry

For ClC1=C(Cl)[C@]2(Cl)[C@H]3[C@H]([C@@H]4C=C[C@H]3C4)[C@@]1(Cl)C2(Cl)Cl [Aldrin], the NOAEL (Canidae; duration: 15.6 months, diet, M/F) was 0.05 mg/kg-day, the LEL (Bovidae; M) was 0.3 mg/kg-day and the NOAEL (Bovidae; duration: 43 days, F, clinical signs) was 1.5 mg/kg-day. It also gave an NOAEL (Gallus gallus; duration: 2 years, no effects) of 0.06 mg/kg-day and an LEL (Ovis sp.; subchronic, duration: 12 weeks, no effects) of 0.3 mg/kg-day.

For ClC1=C(Cl)[C@]2(Cl)[C@@H]3[C@@H]4C[C@@H]([C@H]5O[C@@H]45)[C@@H]3[C@@]1(Cl)C2(Cl)Cl [Dieldrin], the NOAEL (Canidae; duration: 2 years, capsule) was 0.005 mg/kg-day, the LEL (Bovidae; F) was 0.08 mg/kg-day and the LEL (Bovidae; M) was 0.06 mg/kg-day. The NOAEL (Gallus gallus; duration: 13 months, mortality) was 0.6 mg/kg-day, the LEL (Sus scrofa) was 1.2 mg/kg-day and the LOEL (Oncorhynchus mykiss) was 14 µg/kg-day. For the same molecule, the NOAEL (Ovis sp.; chronic, duration: 32 weeks, body weight) was 1 mg/kg-day.
